Measured values taken from patent publication US7365098B2, “N'-cyano-N-methyl-imidamide derivatives” (Bayer CropScience AG, priority 2002, dated 2008).

Tests used:
Meloidogyne incognita = test: Meloidogyne test (gall formation on lettuce roots); assay type: in vivo; settings: for nematizidal activity (formation of galls): Meloidogyne incognita egg/larvae, lettuce in sand, result in words
Method: • Solvent: 7 parts by weight of dimethylformamide • Emulsifier: 2 parts by weight of alkylaryl polyglycol ether To produce a suitable preparation of active compound, 1 part by weight of active compound is mixed with the stated amount of solvent and emulsifier, and the concentrate is diluted with water to the desired concentration. Containers are filled with sand, solution of active compound, Meloidogyne incognita egg/larvae suspension and lettuce seeds. The lettuce seeds germinate and the plants develop. On the roots, galls are formed. After the desired period of time, the nematizidal activity is the determined in percent by the formation of galls. 100% means that no galls were found; 0% means that the number of galls on the treated plants corresponds to that of the untreated control. […] The efficacy of the compounds is stated as kill rate in %.

[1] = logP determination by HPLC on reversed-phase column (EEC-Directive 79/831 Annex V.A8); assay type: physicochemical; settings: reversed-phase C 18, 43° C., acidic range (0.1% aqueous phosphoric acid/acetonitrile gradient); for chromatographic logP: reversed-phase HPLC column (C 18)
Method: The logP values given in table 1 were determined in accordance with EEC-Directive 79/831 Annex V.A8 by HPLC (High Performance Liquid Chromatography) on a reversed-phase column (C 18). Temperature: 43° C. Mobile phases for the determination in the acidic range: 0.1% aqueous phosphoric acid, acetonitrile; linear gradient from 10% acetonitrile to 90% acetonitrile. Calibration was carried out using unbranched alkan-2-ones (having 3 to 16 carbon atoms) whose logP values are known (determination of the lopP values by the retention times using linear interpolation between two successive alkanones).

Spodoptera frugiperda = Spodoptera frugiperda test (dipped cabbage leaves); assay type: in vivo; settings: Spodoptera frugiperda caterpillars on cabbage leaves; result in words
Method: [table] To produce a suitable preparation of active compound, 1 part by weight of active compound is mixed with the stated amount of solvent and emulsifier, and the concentrate is diluted with water to the desired concentration. Cabbage leaves (Brassica oleracea) are treated by being dipped into the preparation of active compound of the desired concentration and are populated with caterpillars of the Heerwurms (Spodoptera frugiperda) while the leaves are still moist. After the desired period of time, the kill in % is determined. 100% means that all caterpillars have been killed. 0% means that none of the caterpillars have been killed.

Phaedon cochleariae = test: Phaedon larvae test (dipped cabbage leaves); assay type: in vivo; settings: Phaedon cochleariae larvae on cabbage leaves; result in words
Method: • Solvent: 7 parts by weight of dimethylformamide • Emulsifier: 2 parts by weight of alkylaryl polyglycol ether To produce a suitable preparation of active compound, 1 part by weight of active compound is mixed with the stated amounts of solvent and emulsifier, and the concentrate is diluted with emulsifier-containing water to the desired concentration. Cabbage leaves (Brassica oleracea) are treated by being dipped into the preparation of active compound of the desired concentration and are populated with larvae of the mustard beetle (Phaedon cochleariae) while the leaves are still moist. After the desired period of time, the kill in % is determined. 100% means that all beetle larvae have been killed. 0% means that none of the beetle larvae have been killed.

| chromatographic logP [1] | Compound | nematizidal activity (formation of galls) (Meloidogyne incognita) | further results |
| --- | --- | --- | --- |
| 2.46 | C/C(=N\C#N)N(C)C(C)c1cc(Cl)ccc1Cl (stereo not drawn) [Example 24] | highly effective | – |
| 2.37 | C/C(=N\C#N)N(C)C(C)c1cccc(Cl)c1Cl (stereo not drawn) [Example 28] | highly effective | – |
| 3.18 | CC/C(=N\C#N)N(C)C(C)c1cc(Cl)c(Cl)cc1Cl (stereo not drawn) [Example 20] | highly effective | – |
| 2.59 | CC/C(=N\C#N)N(C)C(C)c1cccc(Cl)c1Cl (stereo not drawn) [Example 29] | highly effective | – |
| 2.94 | CC/C(=N\C#N)N(C)C(C)c1ccc(Cl)c(Br)c1 (stereo not drawn) [Example 21] | – | – |
| 2.19 | CC/C(=N\C#N)N(C)C(C)c1c(F)cccc1Cl (stereo not drawn) [Example 22] | highly effective | – |
| 2.31 | CC/C(=N\C#N)N(C)C(C)c1cc(F)c(F)cc1F (stereo not drawn) [Example 16] | – | – |
| 2.32 | CC/C(=N\C#N)N(C)C(C)c1ccc(F)c(F)c1 (stereo not drawn) [Example 27] | highly effective | – |
| 2.58 | C/C(=N\C#N)N(C)C(C)c1ccc(Cl)cc1Cl (stereo not drawn) [Example 17] | highly effective | – |
| 2.94 | CC/C(=N\C#N)N(C)C(C)c1ccc(Br)c(Cl)c1 (stereo not drawn) [Example 25] | highly effective | – |
| 2.09 | C/C(=N\C#N)N(C)C(C)c1ccc(F)c(F)c1 (stereo not drawn) [Example 26] | highly effective | – |
| 2.9 | C/C(=N\C#N)N(C)C(C)c1cc(Cl)c(Cl)cc1Cl (stereo not drawn) [Example 19] | highly effective | kill of caterpillars (Spodoptera frugiperda): highly effective; kill of beetle larvae (Phaedon cochleariae): highly effective |
| 2.66 | CC/C(=N\C#N)N(C)C(C)c1cc(F)c(Br)cc1F (stereo not drawn) [Example 30] | – | – |

The next lines start with the compound.

| Compound | chromatographic logP [1] | nematizidal activity (formation of galls) (Meloidogyne incognita) | further results |
| --- | --- | --- | --- |
| CC/C(=N\C#N)N(C)C(C)c1c(F)cccc1Cl (stereo not drawn) [Example 23] | – | highly effective | logP [1]: logP: 2.40 |
| CC/C(=N\C#N)N(C)C(C)c1ccc(Cl)cc1Cl (stereo not drawn) [Example 2, N′-Cyano-N-[1-(2,4-dichlorophenyl)ethyl]-N-methylpropaneimidamide] | 2.8 | – | melting point: 148 °C |
| C/C(=N\C#N)N(C)C(C)c1ccc(Cl)c(F)c1 (stereo not drawn) [Example 7] | 2.4 | highly effective | – |
| CC/C(=N\C#N)N(C)[C@@H](C)c1ccc(Cl)cc1F [Example 10] | 2.55 | highly effective | – |
| CC/C(=N\C#N)N(C)[C@H](C)c1ccc(Cl)cc1F [Example 11] | 2.55 | highly effective | – |
| CC/C(=N\C#N)N(C)C(C)c1ccc(Cl)cc1F (stereo not drawn) [Example 4] | – | highly effective | – |
| C/C(=N\C#N)N(C)C(C)c1ccc(Cl)cc1Cl (stereo not drawn) [drawing 48] | – | – | efficacy stated as kill rate in % (Meloidogyne incognita; 4 ppm active compound): 4 ppm: 100% |
| CC/C(=N\C#N)NC(C)c1ccc(Cl)cc1Cl (stereo not drawn) [drawing 45, reference compound] | – | – | efficacy stated as kill rate in % (Meloidogyne incognita; 20 ppm active compound): 20 ppm: 0% |
| CC/C(=N\C#N)N(C)C(C)c1cc(F)c(Cl)cc1Cl (stereo not drawn) [Example 9] | – | highly effective | kill of caterpillars (Spodoptera frugiperda): highly effective |
| C/C(=N\C#N)N(C)C(C)c1ccc(Cl)c(Cl)c1 (stereo not drawn) [Example 14] | 2.68 | highly effective | – |
| CC/C(=N\C#N)N(C)[C@@H](C)c1cc(F)c(Cl)cc1F [Example 12] | 2.59 | highly effective | – |
| CC/C(=N\C#N)N(C)C(C)c1ccc(Cl)c(Cl)c1Cl (stereo not drawn) [Example 18] | – | highly effective | – |
| CC/C(=N\C#N)N(C)[C@H](C)c1cc(F)c(Cl)cc1F [Example 13] | 2.59 | highly effective | – |
| C/C(=N\C#N)NC(C)c1ccc(Cl)cc1Cl (stereo not drawn) [reference compound] | – | – | efficacy stated as kill rate in % (Meloidogyne incognita; 5 ppm active compound): 5 ppm: 0% |
| C/C(=N\C#N)N(C)C(C)c1cc(F)c(Cl)cc1F (stereo not drawn) [Example 6] | – | highly effective | – |
| CC/C(=N\C#N)NC(C)c1ccc(Cl)c(F)c1 (stereo not drawn) [reference compound] | – | – | efficacy stated as kill rate in % (Meloidogyne incognita; 4 ppm active compound): 4 ppm: 0% |
| CC/C(=N\C#N)N(C)C(C)c1ccc(Cl)c(F)c1 (stereo not drawn) [Example 8] | 2.61 | highly effective | – |
| CC/C(=N\C#N)N(C)C(C)c1ccc(Cl)cc1Cl (stereo not drawn) [drawing 44] | – | – | efficacy stated as kill rate in % (Meloidogyne incognita; 20 ppm active compound): 20 ppm: 100% |
| CC/C(=N\C#N)N(C)C(C)c1cc(F)c(Cl)cc1F (stereo not drawn) [Example 5] | – | highly effective | kill of caterpillars (Spodoptera frugiperda): highly effective |
| CC/C(=N\C#N)N(C)C(C)c1ccc(Cl)c(Cl)c1 (stereo not drawn) [Example 15] | 2.9 | highly effective | – |
| CC/C(=N\C#N)NC(C)c1ccc(Cl)cc1Cl (stereo not drawn) [Example 1, N′-Cyano-N-[1-(2,4-dichlorophenyl)ethyl]propaneimidamide] | 2.56 | – | – |
| CC/C(=N\C#N)N(C)C(C)c1ccc(Cl)c(F)c1 (stereo not drawn) [drawing 46] | – | – | efficacy stated as kill rate in % (Meloidogyne incognita; 4 ppm active compound): 4 ppm: 100% |
| C/C(=N\C#N)N(C)C(C)c1ccc(Cl)cc1F (stereo not drawn) [Example 3] | – | highly effective | – |
